Assay results published in US9839642B2, “Beta-tetrazolyl-propionic acids as metallo-beta-lactamase inhibitors” (priority 2014, dated 2017).
Like-named read-outs stand apart in the source and are kept apart here.

Key:
[1] = system: Klebsiella pneumoniae expressing VIM-1 (IHMA599644); assay: Antibiotic potentiation activity: synergistic concentration (MITC95) with imipenem, growth by OD600; format: cell-based
Outline: (§1)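 MITC95 = lowest inhibitor concentration giving 95% growth inhibition, read by absorbance after 22–24 h at 35° C. Compound range 200 μM to 0.195 μM, imipenem fixed at 1 or 4 μg/ml, bacteria in 1.1×CAMHB from saline suspension diluted 1:100.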

[2] = system: Escherichia coli expressing NDM-1 (CLB30016); assay: as above; format: cell-based
Outline: as §1

[3] = system: Serratia marcescens expressing IMP-1 (CL5741); assay: as above; format: cell-based
Outline: as §1

NDM-1 = NDM-1 (Klebsiella pneumoniae, UniProt C7C422); assay: Enzyme activity: determination of IC50, fluorescence assay with CCF2-FA substrate; format: biochemical; details: CCF2-FA 1.25 μM, 2 hours at 25° C., read-out: NDM1 IC50
Outline: (§2)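 In pH 7 phosphate buffer (100 mM) with 10 μM ZnSO4 and 0.005% Tween-20, CCF2-FA substrate (1.25 μM final) was hydrolysed for 2 h at 25 °C by NDM-1, IMP-1 or VIM-1 at 1, 2 or 30 pM in the presence of inhibitor at 20–0.00063 μM. Emission 460 nm/excitation 405 nm; 4-parameter curve fit gave IC50.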

IMP-1 = IMP-1 (Serratia marcescens, UniProt P52699); assay: as above; format: biochemical; details: CCF2-FA 1.25 μM, 2 hours at 25° C., read-out: IMP1 IC50
Outline: as §2

VIM-1 = VIM-1 (Pseudomonas aeruginosa, UniProt A0A0F7KYQ8); assay: as above; format: biochemical; details: CCF2-FA 1.25 μM, 2 hours at 25° C., read-out: VIM1 IC50
Outline: as §2

[4] = 95% inhibition of bacterial growth, strain IHMA599644
[5] = 95% inhibition of bacterial growth, strain CLB30016
[6] = 95% inhibition of bacterial growth, strain CL5741
[7] = K. pneumoniae IHMA599644 (VIM-1), 95% inhibition of growth
[8] = E. coli CLB30016 (NDM-1), 95% inhibition of growth
[9] = S. marcescens CL5741 (IMP-1), 95% inhibition of growth

IMP-1, sequence (P52699 19-246, looked up, species assumed): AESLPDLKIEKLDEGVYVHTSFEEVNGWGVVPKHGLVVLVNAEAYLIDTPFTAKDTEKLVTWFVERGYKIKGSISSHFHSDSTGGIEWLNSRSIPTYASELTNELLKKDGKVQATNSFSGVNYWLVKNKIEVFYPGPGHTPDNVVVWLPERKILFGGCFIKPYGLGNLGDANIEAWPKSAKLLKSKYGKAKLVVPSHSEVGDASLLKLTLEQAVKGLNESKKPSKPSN
NDM-1, sequence (C7C422 29-270, looked up, species assumed): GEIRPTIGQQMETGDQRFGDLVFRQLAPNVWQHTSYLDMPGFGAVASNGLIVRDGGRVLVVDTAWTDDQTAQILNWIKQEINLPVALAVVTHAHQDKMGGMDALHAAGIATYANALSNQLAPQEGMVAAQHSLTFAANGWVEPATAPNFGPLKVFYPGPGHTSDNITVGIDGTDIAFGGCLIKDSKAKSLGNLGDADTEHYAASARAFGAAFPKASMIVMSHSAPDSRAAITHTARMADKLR

SMILES | VIM1 KP599644 MITC95 [1, 4] | NDM1 EC30016 MITC95 [2, 5] | IMP1 SM5741 MITC95 [3, 6] | IC50 (NDM-1; enzyme 1 pM) | IC50 (IMP-1; enzyme 2 pM) | IC50 (VIM-1; enzyme 30 pM) | VIM1 KP599644 MITC95 [1, 7] | NDM1 EC30016 MITC95 [2, 8] | IMP1 SM5741 MITC95 [3, 9] | IC50 (NDM-1; NDM-1 enzyme 1 pM) | IC50 (IMP-1; IMP-1 enzyme 2 pM) | IC50 (VIM-1; VIM-1 enzyme 30 pM)
CCC[C@H](C(=O)O)[C@H](Cc1ccc(-c2ccc3[nH]ncc3c2)cn1)c1nnn[nH]1 [Example 168, (2S)-2-[(1S)-2-[5-(1H-indazol-5-yl)pyridin-2-yl]-1-(1H-tetrazol-5-yl)ethyl]pentanoic acid] | >200 µM | 25 µM | 200 µM | 100 nM | 3000 nM | 53 nM |  |  |  |  |  | 
CCC[C@H](C(=O)O)[C@H](Cc1ccc(NC(C)CN(C)C)cc1)c1nn[nH]n1 (stereo partly drawn) [Example 224, (2S)-2-[(1S)-2-(4-{[2-(dimethylamino)-1-methylethyl]amino}phenyl)-1-(2H-tetrazol-5-yl)ethyl]pentanoic acid] | 50 µM | 25 µM | 18.8 µM | 1000 nM | 1100 nM | 82 nM |  |  |  |  |  | 
CCC[C@H](C(=O)O)[C@H](Cc1cccc(N2CCN(C)CC2)c1)c1nn[nH]n1 [Example 362, (2S)-2-[(1S)-2-[3-(4-methylpiperazin-1-yl)phenyl]-1-(2H-tetrazol-5-yl)ethyl]pentanoic acid] |  |  |  |  |  |  | 18.8 µM | 25 µM | 150 µM | 640 nM | 11000 nM | 10 nM
CCC[C@H](C(=O)O)[C@H](Cc1ccc2nsnc2c1)c1nnn[nH]1 [Example 271, (2S)-2-[(1S)-2-(2,1,3-benzothiadiazol-5-yl)-1-(1H-tetrazol-5-yl)ethyl]pentanoic acid] |  |  |  |  |  |  | 12.5 µM | 6.2 µM | 50 µM | 84 nM | 650 nM | 1.1 nM
Nc1ccc(-c2ccc(C[C@H](c3nnn[nH]3)[C@@H](C(=O)O)C3CCCC3)cc2)cn1 [Example 72, (2S,3S)-4-(4-(6-aminopyridin-3-yl)phenyl)-2-cyclopentyl-3-(1H-tetrazol-5-yl)butanoic acid] | 12.5 µM | 6.2 µM | 0.39 µM | 5.6 nM | 19 nM | 3.8 nM |  |  |  |  |  | 
CCC[C@H](C(=O)O)[C@H](Cc1ccc(C2CCN(C(=N)N)C2)nc1)c1nnn[nH]1 (stereo partly drawn) [Example 411, (2S)-2-((1S)-2-(6-(1-carbamimidoylpyrrolidin-3-yl)pyridin-3-yl)-1-(1H-tetrazol-5-yl)ethyl)pentanoic acid] |  |  |  |  |  |  | 12.5 µM | 4.688 µM | 50 µM | 179 nM | 2770 nM | 2.96 nM
CC(C)C[C@H](C(=O)O)[C@H](Cc1ccc(Br)c(F)c1)c1nnn[nH]1 [Example 23, (2S)-2-[(1S)-2-(4-bromo-3-fluorophenyl)-1-(1H-tetrazol-5-yl)ethyl]-4-methylpentanoic acid] | 31 µM | 6.3 µM | 3.1 µM | 20 nM | 88 nM | 1.4 nM |  |  |  |  |  | 
CCC[C@H](C(=O)O)[C@H](Cc1ccc(-c2ccc(C3(O)CNC3)cc2)cn1)c1nnn[nH]1 [Example 166, (2S)-2-[(1S)-2-{5-[4-(3-hydroxyazetidin-3-yl)phenyl]pyridin-2-yl}-1-(1H-tetrazol-5-yl)ethyl]pentanoic acid] | 38 µM | 9.4 µM | 100 µM | 500 nM | 9300 nM | 170 nM |  |  |  |  |  | 
CCC[C@H](C(=O)O)[C@H](Cc1ccc(C2CCN(C=N)CC2)cc1)c1nnn[nH]1 [Example 297, (S)-2-((S)-2-(4-(1-(iminomethyl)piperidin-4-yl)phenyl)-1-(1H-tetrazol-5-yl)ethyl)pentanoic acid] |  |  |  |  |  |  | 18.8 µM | 4.7 µM | 6.2 µM | 26 nM | 200 nM | 25 nM
CC(C)C[C@H](C(=O)O)[C@H](Cc1ccc(C2CCNCC2)cn1)c1nnn[nH]1 [Example 101, (S)-4-methyl-2-((S)-2-(5-(piperidin-4-yl)pyridin-2-yl)-1-(1H-tetrazol-5-yl)ethyl)pentanoic acid] | 18.8 µM | 1.6 µM | 18.8 µM | 130 nM | 2000 nM | 13 nM |  |  |  |  |  | 
CC(C)[C@H](C(=O)O)[C@H](Cc1ccc(OCC(N)CO)nc1)c1nnn[nH]1 (stereo partly drawn) [Example 142, (2S,3S)-4-(6-(2-amino-3-hydroxypropoxy)pyridin-3-yl)-2-isopropyl-3-(1H-tetrazol-5-yl)butanoic acid] | 25 µM | 3.1 µM | 50 µM | 340 nM | 5000 nM | 130 nM |  |  |  |  |  | 
CC(C)C[C@H](C(=O)O)[C@H](Cc1ccc(C(N)=O)cc1)c1nnn[nH]1 [Example 48, (2S)-2-[(1S)-2-(4-carbamoylphenyl)-1-(1H-tetrazol-5-yl)ethyl]-4-methylpentanoic acid] | 50 µM | 6.2 µM | 4.7 µM | 43 nM | 130 nM | 2.2 nM |  |  |  |  |  | 
CC(C)C[C@H](C(=O)O)[C@H](Cc1ccc(CN)c(F)c1)c1nnn[nH]1 [Example 56, (S)-2-((S)-2-(4-(aminomethyl)-3-fluorophenyl)-1-(1H-tetrazol-5-yl)ethyl)-4-methylpentanoic acid] | 18.8 µM | 9.4 µM | 47 µM | 520 nM | 1700 nM | 10 nM |  |  |  |  |  | 
CCC[C@H](C(=O)O)[C@H](Cc1ccc(N2CCN(c3ccncc3)CC2)cc1)c1nn[nH]n1 [Example 227, (2S)-2-[(1S)-2-[4-(4-pyridin-4-ylpiperazin-1-yl)phenyl]-1-(2H-tetrazol-5-yl)ethyl]pentanoic acid] | 75 µM | 16 µM | 12.5 µM | 54 nM | 380 nM | 51 nM |  |  |  |  |  | 
O=C(O)[C@@H](C1CCCC1)[C@H](Cc1ccc(C2CCNCC2)cc1)c1nnn[nH]1 [Example 80, 4-(4-((2S,3S)-3-carboxy-3-cyclopentyl-2-(1H-tetrazol-5-yl)propyl)phenyl)piperidine] | 9.4 µM | 6.2 µM | 1.6 µM | 17 nM | 73 nM | 2.2 nM |  |  |  |  |  | 
CCC[C@H](C(=O)O)[C@H](Cc1cccc(C(N)=O)c1)c1nn[nH]n1 [Example 46, (2S)-2-[(1S)-2-(3-carbamoylphenyl)-1-(2H-tetrazol-5-yl)ethyl]pentanoic acid] | 12.5 µM | 9.4 µM | 37.5 µM | 70 nM | 1600 nM | 5.9 nM |  |  |  |  |  | 
CC(C)[C@H](C(=O)O)[C@H](Cc1ccc(N2CCC[C@H]2CO)nc1)c1nnn[nH]1 [Example 126, (2S,3S)-4-(6-((S)-2-(hydroxymethyl)pyrrolidin-1-yl)pyridin-3-yl)-2-isopropyl-3-(1H-tetrazol-5-yl)butanoic acid] | 50 µM | 6.2 µM | 25 µM | 63 nM | 530 nM | 34 nM |  |  |  |  |  | 
